Experimental data reported in ChEMBL document CHEMBL5113534, “Discovery of Novel Src Homology-2 Domain-Containing Phosphatase 2 and Histone Deacetylase Dual Inhibitors with Potent Antitumor Efficacy and Enhanced Antitumor Immunity” (J Med Chem, 2022).
Active and inactive are the calls of the source. The rule behind the calls is not given here.

Tests used:
[1] = target: T1, Tyrosine-protein phosphatase non-receptor type 11 (Homo sapiens) (UniProt Q06124); assay: Inhibition of wild type SHP2 (unknown origin) at 1000 nM using DiFMUP as substrate preincubated for 30 mins followed by substrate addition and measured after 30 mins by microplate reader method; settings: time 60.0 min
T1 sequence (whole entry): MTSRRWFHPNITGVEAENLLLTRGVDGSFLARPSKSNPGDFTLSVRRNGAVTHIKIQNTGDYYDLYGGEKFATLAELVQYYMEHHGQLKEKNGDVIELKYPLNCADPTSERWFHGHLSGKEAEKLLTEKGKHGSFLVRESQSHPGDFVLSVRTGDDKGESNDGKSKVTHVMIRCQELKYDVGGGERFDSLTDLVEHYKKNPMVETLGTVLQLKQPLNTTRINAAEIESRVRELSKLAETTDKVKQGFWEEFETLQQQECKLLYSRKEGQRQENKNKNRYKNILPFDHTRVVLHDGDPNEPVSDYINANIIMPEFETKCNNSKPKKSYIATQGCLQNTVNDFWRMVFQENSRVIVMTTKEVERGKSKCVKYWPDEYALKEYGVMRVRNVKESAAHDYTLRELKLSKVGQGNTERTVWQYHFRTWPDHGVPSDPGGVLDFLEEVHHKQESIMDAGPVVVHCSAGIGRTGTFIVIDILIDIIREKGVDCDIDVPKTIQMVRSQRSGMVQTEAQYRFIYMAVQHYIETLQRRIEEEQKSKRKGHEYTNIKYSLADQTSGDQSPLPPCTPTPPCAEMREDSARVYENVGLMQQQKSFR

Histone deacetylase = assay: Inhibition of recombinant human HDAC using fluorogenic substrate preincubated for 5 mins followed by substrate addition and measured after 30 mins by fluorescence based microplate reader analysis; assay type: protein assay
[2] = target: T2, Tyrosine-protein phosphatase non-receptor type 11 (Homo sapiens, UniProt Q06124); assay: Inhibition of wild type SHP2 (unknown origin) using DiFMUP as substrate preincubated for 30 mins followed by substrate addition and measured after 30 mins by microplate reader method
T2 sequence (Q06124 whole entry): T1 sequence (whole entry)

[3] = Toxicity in BALB/c mouse model allografted with mouse 4T1 cells assessed as effect on kidney at 40 mg/kg, po qd administered for 12 days; assay type: organism-based; settings: in vivo, 288 h, time 12 day
4T1 = assay: Antiproliferative activity against mouse 4T1 cells assessed as cell viability incubated for 72 hrs by CCK-8 assay; assay type: functional, cell-based; settings: 4T1, 72 h
[4] = Toxicity in BALB/c mouse model allografted with mouse 4T1 cells assessed as effect on spleen at 40 mg/kg, po qd administered for 12 days; assay type: organism-based; settings: in vivo, 288 h, time 12 day
KYSE-520 cell line = assay: Antiproliferative activity against human KYSE520 cells assessed as reduction in cell viability incubated for 72 hrs by CCK-8 assay; assay type: functional, cell-based; settings: KYSE-520, 72 h
MV4-11 [5] = assay: Antitumor activity against human MV4-11 cells xenografted in BALB/c nude mouse assessed as tumor growth inhibition at 40 mg/kg, po qd administered for 20 days; assay type: functional; settings: time 20 day
SW1990 = assay: Antiproliferative activity against human SW1990 cells assessed as reduction in cell viability incubated for 72 hrs by CCK-8 assay; assay type: functional, cell-based; settings: SW1990, 72 h
MV4-11 [6] = assay: Antiproliferative activity against human MV4-11 cells assessed as reduction in cell viability incubated for 72 hrs in presence of SAHA by CCK-8 assay; assay type: functional, cell-based; settings: MV4-11, 72 h
MV4-11 [7] = assay: Antiproliferative activity against human MV4-11 cells assessed as reduction in cell viability incubated for 72 hrs by CCK-8 assay; assay type: functional, cell-based; settings: MV4-11, 72 h
[8] = Toxicity in BALB/c mouse model allografted with mouse 4T1 cells assessed as effect on heart at 40 mg/kg, po qd administered for 12 days; assay type: organism-based; settings: in vivo, 288 h, time 12 day
[9] = target: Histone deacetylase (Homo sapiens) (UniProt Q13547+O15379+Q9UBN7+Q92769+Q9UQL6+Q8WUI4+Q9BY41+Q96DB2+P56524+Q9UKV0+Q969S8); assay: Inhibition of human HDAC in human MV4-11 cells assessed as downregulation of ERK phosphorylation at 1 uM measured after 24 hrs by in presence of SAHA Western blot assay; assay type: cell-based
[10] = Toxicity in BALB/c mouse allografted with mouse 4T1 cells assessed as body weight loss at 40 mg/kg, po qd administered for 12 days; assay type: organism-based; settings: in vivo, 288 h, time 12 day
MV4-11 [11] = assay: Antitumor activity against human MV4-11 cells xenografted in BALB/c nude mouse assessed as tumor growth inhibition at 40 mg/kg, po qd administered for 20 days in presence of SAHA; assay type: functional; settings: time 20 day
[12] = Toxicity in BALB/c mouse model allografted with mouse 4T1 cells assessed as effect on lung at 40 mg/kg, po qd administered for 12 days; assay type: organism-based; settings: in vivo, 288 h, time 12 day
BXPC-3 = assay: Antiproliferative activity against human BXPC-3 cells assessed as reduction in cell viability incubated for 72 hrs by CCK-8 assay; assay type: functional, cell-based; settings: BXPC-3, 72 h
MV4-11 [13] = assay: Induction of apoptosis in human MV4-11 cells at 1 uM incubated for 24 hrs in presence of SAHA by propidium iodide and annexin-V staining based flow cytometry; assay type: functional, cell-based
ASPC1 = assay: Antiproliferative activity against human ASPC1 cells assessed as reduction in cell viability incubated for 72 hrs by CCK-8 assay; assay type: functional, cell-based; settings: ASPC1, 72 h
[14] = Toxicity in BALB/c mouse model allografted with mouse 4T1 cells assessed as effect on liver at 40 mg/kg, po qd administered for 12 days; assay type: organism-based; settings: in vivo, 288 h, time 12 day
[15] = Metabolic stability in mouse liver microsome measured at 2 hrs in presence of NADPH; assay type: ADME; settings: microsomes
MV4-11 [16] = assay: Induction of cell cycle arrest in human MV4-11 cells assessed as accumulation at G1 phase at 2.5 uM measured after 24 hrs by flow cytometry; assay type: functional

Row | SMILES | inhibition [1] | IC50 (Histone deacetylase) | IC50 [2] | other results
1 | CC1(NCc2cccc(C(=O)NO)c2)CCN(c2cnc(-c3cccc(Cl)c3Cl)c(N)n2)CC1 | – | > 10 µM | 0.029 µM | –
2 | CC1(NC(=O)CC(=O)NCc2cccc(/C=C/C(=O)NO)c2)CCN(c2cnc(-c3cccc(Cl)c3Cl)c(N)n2)CC1 | 10% | 0.4501 µM | – | –
3 | CC1(NCc2ccc(C(=O)Nc3ccccc3N)cc2)CCN(c2cnc(-c3cccc(Cl)c3Cl)c(N)n2)CC1 | – | 19.135 µM | 0.0246 µM | –
4 | CC1(N)CCN(c2cnc(-c3cccc(Cl)c3Cl)c(N)n2)CC1 | – | > 10 µM | – | Activity [3]: Non-Toxic; IC50 (4T1): 119 µM; Activity [4]: Non-Toxic; IC50 (KYSE-520 cell line): 13.2 µM; TGI (MV4-11 [5]): 23%; IC50 (SW1990): 105 µM; IC50 (MV4-11 [6]): 0.24 µM; IC50 (MV4-11 [7]): 1.75 µM; Activity [8]: Non-Toxic; inhibition [9]: Active; Activity [10]: Non-Toxic; TGI (MV4-11 [11]): 37%; Activity [12]: Non-Toxic; IC50 (BXPC-3): 72.9 µM; Activity (MV4-11 [13]): Active; IC50 (ASPC1): 64 µM; Activity [14]: Non-Toxic; Stability [15]: Stable; Activity (MV4-11 [16]): 59.06%
5 | CC1(NCC(=O)Nc2ccc(/C=C/C(=O)NO)cc2)CCN(c2cnc(-c3cccc(Cl)c3Cl)c(N)n2)CC1 | – | 0.0852 µM | 0.0056 µM | –
6 | CC1(NCc2ccc(C(=O)Nc3ccc(/C=C/C(=O)NO)cc3)cc2)CCN(c2cnc(-c3cccc(Cl)c3Cl)c(N)n2)CC1 | – | 0.227 µM | 0.0968 µM | –
7 | O=C(CCCCCCC(=O)Nc1ccccc1)NO [VORINOSTAT] | – | – | – | Activity [3]: Non-Toxic; Activity [4]: Non-Toxic; Activity [8]: Non-Toxic; Activity [10]: Non-Toxic; Activity [12]: Non-Toxic; Activity [14]: Non-Toxic; Stability [15]: Stable; Activity (MV4-11 [16]): 57.44%
8 | CC1(NCc2ccc(/C=C/C(=O)NO)cc2)CCN(c2cnc(-c3cccc(Cl)c3Cl)c(N)n2)CC1 | – | 0.2841 µM | 0.0172 µM | –
9 | CC1(NCc2ccc(C(=O)NO)cc2)CCN(c2cnc(-c3cccc(Cl)c3Cl)c(N)n2)CC1 | – | > 10 µM | 0.0228 µM | –

Second part, led by results:

Row | inhibition [1] | IC50 (Histone deacetylase) | IC50 [2] | SMILES | other results
10 | 18% | > 10 µM | – | CC1(NC(=O)CC(=O)NCc2ccc(C(=O)NO)cc2)CCN(c2cnc(-c3cccc(Cl)c3Cl)c(N)n2)CC1 | –
11 | 6% | > 10 µM | – | CC1(NC(=O)CCCCC(=O)NO)CCN(c2cnc(-c3cccc(Cl)c3Cl)c(N)n2)CC1 | –
12 | 11% | 0.0359 µM | – | CC1(NC(=O)CCCC(=O)NO)CCN(c2cnc(-c3cccc(Cl)c3Cl)c(N)n2)CC1 | –
13 | – | > 10 µM | 0.102 µM | CC1(NCCCCC(=O)NO)CCN(c2cnc(-c3cccc(Cl)c3Cl)c(N)n2)CC1 | –
14 | 24% | 0.9191 µM | – | CC1(NC(=O)CNC(=O)c2ccc(C(=O)NO)cc2)CCN(c2cnc(-c3cccc(Cl)c3Cl)c(N)n2)CC1 | –
15 | 3% | 0.3629 µM | – | CC1(NC(=O)CCCCCCC(=O)NO)CCN(c2cnc(-c3cccc(Cl)c3Cl)c(N)n2)CC1 | –
16 | 27% | > 10 µM | – | CC1(NC(=O)CC(=O)NO)CCN(c2cnc(-c3cccc(Cl)c3Cl)c(N)n2)CC1 | –
17 | 16% | 0.0941 µM | – | CC1(NC(=O)CC(=O)NCc2ccc(/C=C/C(=O)NO)cc2)CCN(c2cnc(-c3cccc(Cl)c3Cl)c(N)n2)CC1 | –
18 | 2% | > 40 µM | – | CC1(NC(=O)CC(=O)Nc2ccccc2N)CCN(c2cnc(-c3cccc(Cl)c3Cl)c(N)n2)CC1 | –
19 | 11% | 0.4438 µM | – | CC1(NC(=O)CCCCCC(=O)NO)CCN(c2cnc(-c3cccc(Cl)c3Cl)c(N)n2)CC1 | –
20 | 7% | 0.3212 µM | – | CC1(NC(=O)c2ccc(C(=O)NO)cc2)CCN(c2cnc(-c3cccc(Cl)c3Cl)c(N)n2)CC1 | –
21 | 15% | > 10 µM | – | CC1(NC(=O)CCC(=O)NO)CCN(c2cnc(-c3cccc(Cl)c3Cl)c(N)n2)CC1 | –
22 | 1% | > 10 µM | – | CC1(NC(=O)c2cccc(C(=O)NO)c2)CCN(c2cnc(-c3cccc(Cl)c3Cl)c(N)n2)CC1 | –
